Measurements taken from patent publication US20260085039A1 (priority 2022, published 2026).
In brackets after ≈: the same amount, converted by molar mass. Entries after “also recorded” stand apart in the source; their conditions may differ. Read-outs that look alike come from different tables or passages of the source.

How the values were obtained:
[1] = Solubility (appearance) and pH in saline; type: physicochemical
[2] = acid for salt screen; cited from earlier work
[3] = Drying studies, form by XRPD after vacuum drying; type: physicochemical; settings: RT, 1 d
Procedure: XRPD patterns were collected with a PANalytical X'Pert PRO MPD or Empyrean diffractometer using an incident beam of Cu radiation produced using an Optix long, fine-focus source. An elliptically graded multilayer mirror was used to focus Cu Kα X-ray radiation through the specimen and onto the detector. Prior to the analysis, a silicon specimen (NIST SRM 640f) was analyzed to verify the observed position of the Si (111) peak is consistent with the NIST-certified position. A specimen of the sample was sandwiched between 3-μm-thick films and analyzed in transmission geometry. A beam-stop, short antiscatter extension, and antiscatter knife edge were used to minimize the background generated by air. Soller slits for the incident and diffracted beams were used to minimize broadening from axial divergence. Diffraction patterns were collected using a scanning position-sensitive detector (X'Celerator) located 240 mm from the specimen and Data Collector software v. 5.5.

[4] = Stability in saline by HPLC psilocin peak area over time; settings: aqueous solution such as saline, 36 hours
[5] = Approximate solubility by solvent aliquot addition, visual inspection, ambient temperature; type: physicochemical
Procedure: Weighed samples were treated with aliquots of designated solvent at ambient temperature. Complete dissolution of the test material was determined by visual inspection. Solubility was estimated based on the total solvent volume used to provide the complete dissolution. If complete dissolution was achieved by only one aliquot addition, the value is reported as “larger than”; if complete dissolution was not achieved, the value is reported as “less than”. The actual solubility may be greater than the value calculated because of the use of solvent aliquots that were too large or due to a slow rate of dissolution.

[6] = Observation of solubility samples after 1 day ambient storage (discoloration); type: physicochemical
Description: The solubility estimates were utilized to design experiments for the salt screen.

CCCC(=O)O.CN(C)CCc1c[nH]c2cccc(O)c12 [Psilocin butyrate]
Appearance in solution ([1]; 1.0 mg/mL in saline): Visually soluble, clear solution | pH ([1]; 1.0 mg/mL in saline): 6.281

O=C(O)C=C(CC(=O)O)C(=O)O [Aconitic acid]
pKa1 [2]: 2.80

C/C=C/C=C/C(=O)O [Sorbic acid]
pKa1 [2]: 4.75

O=S(=O)(O)c1ccccc1 [Benzesulfonic acid]
pKa1 [2]: 0.17

O=C1O[C@H]([C@H](O)CO)C(O)=C1O [Erythorbic acid]
pKa1 [2]: 2.1

O=C1CC[C@@H](C(=O)O)N1 [Pyrogluatmic acid]
pKa1 [2]: 3.32

CN(C)CCc1c[nH]c2cccc(O)c12.O=C(O)c1ccccc1 [Benzoate Form A]
XRPD Result after drying [3]: maintains the same form; also recorded: Benzoate Form A

CN(C)CCc1c[nH]c2cccc(O)c12 [psilocin, 4-hydroxy-N,N-dimethyltryptamine]
decrease in the amount of psilocin present over time [4]: ≥ 15% | Appearance in solution ([1]; 0.1 mg/mL in saline): Visually soluble, clear solution | pH ([1]; 0.1 mg/mL in saline): 9.053 | Appearance in solution ([1]; 1.0 mg/mL in saline): Cloudy solution, not soluble | pH ([1]; 1.0 mg/mL in saline): 9.395 | solubility ([5]; ACN, ambient temperature, estimated): 9 mg/mL (≈ 44.1 mM) | solubility ([5]; EtOAc, ambient temperature, estimated): 8 mg/mL (≈ 39.2 mM) | solubility ([5]; ethanol, organic solvent or mixture, thermodynamic from solid, EtOH, ambient temperature, estimated, read-out: Solubility): < 1 mg/mL | solubility ([5]; methanol, organic solvent or mixture, thermodynamic from solid, MeOH, ambient temperature, estimated, read-out: Solubility): < 1 mg/mL | solubility ([5]; organic solvent or mixture, thermodynamic from solid, Acetone, ambient temperature, estimated, read-out: Solubility): 20 mg/mL (≈ 97.9 mM) | solubility ([5]; organic solvent or mixture, thermodynamic from solid, Dioxane, ambient temperature, estimated, read-out: Solubility): 18 mg/mL (≈ 88.1 mM) | solubility ([5]; other organic solvents (not water, not alcohols), organic solvent or mixture, thermodynamic from solid, read-out: Solubility): ≥ 8 mg/mL | solubility ([5]; tetrahydrofuran, organic solvent or mixture, thermodynamic from solid, THF, ambient temperature, estimated, read-out: Solubility): 18 mg/mL (≈ 88.1 mM) | solubility ([5]; water and alcohols): poorly soluble | solubility ([5]; water, thermodynamic from solid, H20, ambient temperature, estimated, read-out: Solubility): < 1 mg/mL | Observation after 1 day ambient storage ([6]; ACN): No discoloration | Observation after 1 day ambient storage ([6]; Acetone): No discoloration | Observation after 1 day ambient storage ([6]; Dioxane): No discoloration | Observation after 1 day ambient storage ([6]; EtOAc): No discoloration | Observation after 1 day ambient storage ([6]; EtOH): No discoloration | Observation after 1 day ambient storage ([6]; H20): Discoloration (black suspension) | Observation after 1 day ambient storage ([6]; H20, listed as Psilocin free base): strong discoloration (black) | Observation after 1 day ambient storage ([6]; MeOH): No discoloration | Observation after 1 day ambient storage ([6]; THF): No discoloration
